Test results reported in paper PMC6151984, “Novel Sulfamide-Containing Compounds as Selective Carbonic Anhydrase I Inhibitors” (Molecules : A Journal of Synthetic Chemistry and Natural …, 2017).

What was measured:
Assay in all cases: stopped-flow CO2 hydration assay
Assay type in all cases: biochemical
hCA IV = molecular target: T1, hCA IV (Homo sapiens, UniProt P22748)
T1 construct: gene CA4; recombinant, obtained in-house
From the text: stopped-flow CO2 hydration assay on hCA IV

hCA I = molecular target: T2, hCA I (Homo sapiens, UniProt P00915)
T2 construct: gene CA1; recombinant, obtained in-house; cytosolic
From the text: stopped-flow CO2 hydration assay on hCA I

hCA II = molecular target: T3, hCA II (Homo sapiens, UniProt P00918)
T3 construct: gene CA2; recombinant, obtained in-house; cytosolic
From the text: stopped-flow CO2 hydration assay on hCA II

T2 sequence (P00915 2-261): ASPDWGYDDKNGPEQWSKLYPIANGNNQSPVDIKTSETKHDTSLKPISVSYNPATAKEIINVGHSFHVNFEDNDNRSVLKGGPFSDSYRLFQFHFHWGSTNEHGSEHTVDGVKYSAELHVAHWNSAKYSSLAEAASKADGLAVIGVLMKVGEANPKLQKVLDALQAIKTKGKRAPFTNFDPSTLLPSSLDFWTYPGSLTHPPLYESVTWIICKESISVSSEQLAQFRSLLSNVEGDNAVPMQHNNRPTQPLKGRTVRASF
T1 sequence (P22748 19-284): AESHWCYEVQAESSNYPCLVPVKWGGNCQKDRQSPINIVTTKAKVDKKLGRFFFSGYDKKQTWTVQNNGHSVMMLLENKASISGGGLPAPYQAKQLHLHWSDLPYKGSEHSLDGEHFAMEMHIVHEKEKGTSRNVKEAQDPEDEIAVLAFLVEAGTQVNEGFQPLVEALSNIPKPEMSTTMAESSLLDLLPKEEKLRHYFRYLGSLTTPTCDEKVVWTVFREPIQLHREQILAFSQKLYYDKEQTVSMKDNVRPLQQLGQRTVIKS

Row | Ki (hCA IV) [nM] | Ki (hCA I) [nM] | Ki (hCA II) [nM] | Structure (SMILES)
1 | 151 | 286 | 473 | NS(=O)(=O)Nc1ccccc1S(=O)(=O)NCCC(=O)N1CCN(C(c2ccccc2)c2ccccc2)CC1 [6a, N-(3-(4-Benzhydrylpiperazin-1-yl)-3-oxopropyl)-2-(sulfamoylamino)benzenesulfonamide]
2 | 423 | 94 | 165 | NS(=O)(=O)Nc1cccc(S(=O)(=O)NCCC(=O)N2CCN(C(c3ccc(F)cc3)c3ccc(F)cc3)CC2)c1 [6e, N-(3-(4-(bis(4-Fluorophenyl)methyl)piperazin-1-yl)-3-oxopropyl)-3(sulfamoylamino)benzenesulfonamide]
3 | 202 | 63.2 | 406 | NS(=O)(=O)Nc1ccc(S(=O)(=O)NCCC(=O)N2CCN(C(c3ccc(F)cc3)c3ccc(F)cc3)CC2)cc1 [6f, N-(3-(4-(bis(4-Fluorophenyl)methyl)piperazin-1-yl)-3-oxopropyl)-4-(sulfamoylamino)benzenesulfonamide]
4 | 314 | 605 | 89.8 | NS(=O)(=O)Nc1ccccc1S(=O)(=O)N1CCCC(C(=O)N2CCN(C(c3ccccc3)c3ccccc3)CC2)C1 (stereo not drawn) [6g, (1-((2-Sulfamoylaminophenyl)sulfonyl)piperidin-3-yl)(4-benzhydrylpiperazin-1-yl)methanone]
5 | 364 | 153 | 455 | NS(=O)(=O)Nc1ccc(S(=O)(=O)N2CCCC(C(=O)N3CCN(C(c4ccccc4)c4ccccc4)CC3)C2)cc1 (stereo not drawn) [6i, (1-((4-Sulfamoylaminophenyl)sulfonyl)piperidin-3-yl)(4-benzhydrylpiperazin-1-yl)methanone]
6 | 1380 | 45.8 | 753 | NS(=O)(=O)Nc1cccc(S(=O)(=O)N2CCCC(C(=O)N3CCN(C(c4ccc(F)cc4)c4ccc(F)cc4)CC3)C2)c1 (stereo not drawn) [6k, (1-((3-Sulfamoylaminophenyl)sulfonyl)piperidin-3-yl)(4-(bis(4-fluorophenyl)methyl)piperazin-1-yl)methanone]

The next lines start with the molecule.

Row | Structure (SMILES) | Ki (hCA IV) [nM] | Ki (hCA I) [nM] | Ki (hCA II) [nM]
7 | NS(=O)(=O)Nc1cccc(S(=O)(=O)NCCC(=O)N2CCN(C(c3ccccc3)c3ccccc3)CC2)c1 [6b, N-(3-(4-Benzhydrylpiperazin-1-yl)-3-oxopropyl)-3-(sulfamoylamino)benzenesulfonamide] | 2360 | 83.1 | 419
8 | NS(=O)(=O)Nc1ccc(S(=O)(=O)NCCC(=O)N2CCN(C(c3ccccc3)c3ccccc3)CC2)cc1 [6c, N-(3-(4-Benzhydrylpiperazin-1-yl)-3-oxopropyl)-4-(sulfamoylamino)benzenesulfonamide] | 124 | 75.4 | 439
9 | NS(=O)(=O)Nc1ccccc1S(=O)(=O)NCCC(=O)N1CCN(C(c2ccc(F)cc2)c2ccc(F)cc2)CC1 [6d, N-(3-(4-(bis(4-Fluorophenyl)methyl)piperazin-1-yl)-3-oxopropyl)-2(sulfamoylamino)benzenesulfonamide] | 117 | 660 | 189
10 | NS(=O)(=O)Nc1cccc(S(=O)(=O)N2CCCC(C(=O)N3CCN(C(c4ccccc4)c4ccccc4)CC3)C2)c1 (stereo not drawn) [6h, 4(1-((3-Sulfamoylaminophenyl)sulfonyl)piperidin-3-yl)(4-benzhydrylpiperazin-1-yl)methanone] | 1620 | 71.4 | 911
11 | NS(=O)(=O)Nc1ccccc1S(=O)(=O)N1CCCC(C(=O)N2CCN(C(c3ccc(F)cc3)c3ccc(F)cc3)CC2)C1 (stereo not drawn) [6j, (1-((2-Sulfamoylaminophenyl)sulfonyl)piperidin-3-yl)(4-(bis(4-fluorophenyl)methyl)piperazin-1-yl)methanone] | 1500 | 2750 | 6460
12 | NS(=O)(=O)Nc1ccc(S(=O)(=O)N2CCCC(C(=O)N3CCN(C(c4ccc(F)cc4)c4ccc(F)cc4)CC3)C2)cc1 (stereo not drawn) [6l, (1-((4-Sulfamoylaminophenyl)sulfonyl)piperidin-3-yl)(4-(bis(4-fluorophenyl)methyl)piperazin-1-yl)methanone] | 467 | 326 | 786
